Test results as given in patent US20230226079A1, “METHODS AND COMPOSITIONS FOR TREATMENT OF SOLID TUMORS” (Saint Louis University, priority 2022, published 2023).
Converted amounts (≈) assume the structure as drawn.

Experiments:
[1] = test system: TNBC cell lines MDA-MB-231, BT459 and MDA-MB-468; assay: TNBC cell cytotoxicity assays; type: cell-based
Source text: (§1) The Inventors tested human MDA-MB-231 and mouse 4T1 cells in dose dependent manner (FIG. 8). […] The Inventors also tested other compounds in TNBC cell cytotoxicity assays, but these required much higher amounts (>[…]) even for ˜40% cell death.

JHU029 cells = assay: Cytotoxicity assay (Cell Counting Kit-8) in JHU029 cells; type: cell-based; conditions: 48 h, treated for 48 h; read-out: IC50 dose, JHU029 cells
Source text: (§2) Normal oral keratinocytes (NOK) (kindly gifted by Dr. Karl Mugner, Tuffs University, Boston, MA, USA) were maintained in Keratinocyte SFM medium supplemented with EGF and bovine pituitary extract (GIBCO, Life Technologies, Berkeley, MO, USA) and 1% penicillin/ streptomycin. HNC cell line Ca127 was purchased from the ATCC. JHU029 (JHU-29) and JHU022 (JHU-22) cell lines were procured from the Johns Hopkins University (Baltimore, MD, USA). The Ca127 and JHU022 cells were maintained in Dulbecco's Modified Eagle Medium (DMEM), and JHU029 cells were in RPMI1640 (Sigma, St. Louis, Mo., USA) media supplemented with 10% FBS and 1% penicillin/ streptomycin (Sigma-Aldrich, St. Louis, Mo., USA) in a humidified CO2 incubator. The cell lines are routinely tested in the Inventors' laboratory to rule out mycoplasma contamination using a commercial Mycoplasma Detection kit (MycoAlert™, Lonza, Morrisville, N.C., USA). Ca127 cells are tongue origin and JHU022 and JHU029 cells are from larynx origin.
Bitter melon extract (BME) was prepared from the Chinese variety of young bitter melons (raw and green) as described previously (Rajamoorthi et al. (2013) PLoS ONE; 8, e78006). Briefly, BME was prepared by aqueous extraction from whole fruit without seeds using a household juicer at room temperature with subsequent centrifugation at 15000 g at 4 C for 30 min. BME was stored at −80 C for further analysis. […]

MDA-MB-231 cells [2] = type: cell-based
Source text: FIG. 10A illustrates Treated or untreated cells were stained with Calcein AM (green color indicates live cells) and ethidium homodimer-1 (red color inndicates dead cells-shown by white arrows) to quantitate the live and dead cells by fluorescence microscopy with corresponding bright field images. Magnification 10X. Arrows indicate dead cells. FIG. 10B illustrates Quantitation of relative dead cells, calculated from five random fields. Small bar indicates standard error ***p<0.001).
FIG. 11 illustrates M-I activates NK cells for killing activity. MDA-MB-231 cells were co-cultured with NK cells activated by IL2, BME or M-I. After 24 hr cell lysates were prepared and subjected to Western blot analysis using specific antibodies. Left panel: Representative western blot images for cleaved PARP, expression of cleaved Caspase 9 and 3 are shown. Membrane was reprobed with antibody for Actin as an internal control.
NK cells are implicated in drug induced resistant cancer cells to drive tumor growth (Smalley et al., 2020). […] Bitter melon extract was used as a control. Control or M-I treated NK3.3 cells were also cocultured with MDA-MB-231 cells at 1:5 (Target:Effector) ratio for 24 h and stained for viable/dead cells. […] The apoptotic markers were further examined by Western blot analysis.

MDA-MB-231 cells [3] = assay: Cell viability of MDA-MB-231 cells; type: cell-based; conditions: Homo sapiens, 72h
Description: FIG. 8 illustrates 4T1 and MDA-MB-231 cells treated with M-I at indicated doses for 72h. The viability of control cells was arbitrarily set to 100%. Results shown are an average of three independent experiments. Data are represented as mean±SD.
as §1

[4] = test system: normal mammary epithelial cells; assay: Cytotoxicity in normal mammary epithelial cells; type: cell-based, human
[5] = test system: normal oral keratinocytes (NOK); assay: Cytotoxicity assay in normal oral keratinocytes; type: cell-based, human; conditions: 48 h
Source text: as §2
Ca127, JHU029, JHU022 and NOK were seeded in 96 well-plate (5000 cells/well) and cells were treated with different concentration of M-I for 48 h. There were untreated control and DMSO treated vehicle control group for comparison. Cytotoxicity assay was performed using Cell Counting Kit-8 (Dojindo Molecular Technology, Rockville, Md., USA) according to manufacturer instruction.

c-Met and c-Myc = assay: Western blot of JHU029 tumor lysates; type: in vivo, nude mice; conditions: JHU029 xenograft tumors
Description: Lysates from control, BME or M-I treated cells and tumors were prepared using 2 SDS sample buffer and subjected to western blot analysis using specific antibodies to c-Met (1:500, Cell Signaling Technology, CST, Denvers, Mass., USA,), phospho-STAT3 (pSTAT3-Tyr-705) (1:1000, CST), total STAT3 (1:1000, CST), c-Myc (1:1000, CST), surviving (1:500, Santa Cruz Biotechnology, SBT, Dallas, Tex., USA) and cyclin D1 (1: 500, SBT). HRP conjugated anti-mouse or anti-rabbit secondary antibodies were purchased from Bio-Rad (Hercules, Calif., USA). The blot was reprobed with HRP conjugated -actin antibody (1:5000; SBT) to compare protein load in each lane. Densitometry analysis was done using Image J software (NIH, Bethesda, Md., USA).
JHU029 or Ca127 cells (1.5 10^6) containing 40% Matrigel were injected subcutaneously into the flank of BALB/c athymic nude mice (7-8 weeks old). When the palpable tumor was developed (>60 mm3), mice were divided into three groups randomly, 5 mice in each group. The control group was without any treatment. The BME group received 30% (v/v) BME through drinking water. M-I group received 30 mg/kg dose of M-I once in day, every day. Body weight was monitored, and tumor size was measured using a slide caliper and volume was calculated using the formula 1/2 L X W2. After animal sacrifice tumors were dissected out and snap frozen in liquid nitrogen for further analysis. […]

insulin secretion = conditions: in vitro; cited from earlier work

Structure (SMILES): CC(C)=CC(O)CC(C)[C@H]1CC[C@@]2(C)[C@@H]3[C@@H](O)C=C4[C@@H](CC[C@H](O)C4(C)C)[C@]3(C=O)CC[C@]12C (stereo partly drawn) [M-I, (3S, 7S, 8S, 9R, 10R, 13R, 14S, 17R) 3,7-dihydroxy-17-(4-hydroxy-6-methylhept-5-en-2-yl)-4,4,13,14-tetramethyl-2,3,7,8,10,11, 12,15, 16,17-decahydro-1H-cyclopenta[a]phenanthrene-9-carbaldehyde]
- cell growth of TNBC cell lines [1]: inhibits cell growth in a time-dependent manner
- IC50 (JHU029 cells): < 8 µg/mL
- cytotoxicity of treated NK3.3 cells against MDA-MB-231 cells (MDA-MB-231 cells [2]): enhanced cytotoxicity
- caspase 9/3 and PARP cleavage in breast cancer cells (MDA-MB-231 cells [2]; M-I treated NK cells co-cultured with MDA-MB-231 cells, 24 hr, Western blot): activate caspase 9/3 and PARP cleavage
- IC50 (MDA-MB-231 cells [3]): 12 µg/mL (≈ 25.4 µM)
- effect on human normal mammary epithelial cells [4]: minimum effect
- effect on human normal oral keratinocytes (NOK) [5]: minimum effect
- expression of c-Met and c-Myc in tumors versus untreated control (c-Met and c-Myc): significant reduction
- insulin secretion (insulin secretion): stimulate insulin secretion
